Measured values from patent publication US11471463B2, “Enhancers of cellular cannibalism for use to sensitize tumors to radiation therapy” (Institut Gustave-Roussy, priority 2017, dated 2022).
Entries after “also recorded” stand apart in the source; their conditions may differ. Where a name gives a salt, the structure may show the parent alone.

Key:
HCT116 cells = assay: Screening for enhancers of IR-mediated cellular cannibalism (imaging flow cytometry, confocal microscopy validation); assay type: cell-based, human; settings: 8 Gray, 10 μM compound, 24 hours of culture
Method: FIG. 4 Identification of cannibalism modulators triggered by ionizing radiation. Compounds from the Prestwick (A) and CEA (F) libraries were tested for their capacities to induce cellular cannibalism after ionizing radiation. Cannibal cells were detected after homotypic cultures of 8 gray γ-irradiation HCT116 cells in the presence or absence of […] of the Prestwick (A) and CEA […] library compounds. Each dot represents one compound. Representative images are shown in (B, G). (C, H) HCT116 cells were treated with the indicated drugs. After 24 h of treatment, cell death was monitored by staining with 3,3 dihexyloxacarbocyanine iodide (DiOC6(3)) and PI, and the percentage of dying (DiOC6(3)^low PI^−, open bars) and dead (DiOC6(3)^low PI^+, closed bars) cells was determined by cytofluorometry. Validation of the cannibalism inducers by fluorescent microscopy. Representative images (D, I) and quantification (E, J) are shown. Results are means±s.e.m. of triplicate determinations.
Then, the screening of a library of chemical compounds was developed in order to identify compounds able to induce IR-mediated cellular cannibalism. Thus, HCT116 cells that have been treated with a radiation dose of 8 Gray were stained either with orange CMTMR cell tracker or green CMFDA cell tracker and cultivated in presence of 10 μM of chemical compounds. After 24 hours of culture, cells have been stained with nuclear dye (5 μg/ml of Hoechst 33342 during 1 h at 37° C.) and analyzed using the FlowSight® Imaging Flow Cytometer for cellular cannibalism. Each of these compounds were classified according to their Z-score^47 and identified respectively 13 and 11 candidate compounds (FIGS. 4A, 4B, 4F and 4G). Then, the identified compounds were validated by combining flow cytometry approaches (in order to eliminate cytotoxic compounds by simultaneously monitoring the depolarization of the internal mitochondrial membrane and the plasma membrane permeability of the treated cells) with confocal microscopy approaches (to confirm the modulation of IR-induced cellular cannibalism by candidate compounds) (FIGS. 4C-E and 4H-J). […] Finally, 16 chemical compounds that are able to enhance the capacity of IR to trigger cellular cannibalism were identified (FIGS. 4E and 4J, Tables 1&2).

CT26 cells = assay: Anti-tumor vaccination assay, treated CT26 cells inoculated into BALB/c mice and rechallenge; assay type: in vivo, mouse; settings: for Protective response after injection of cancer cells, compound alone: CT26 cells treated with 10 μM compound alone (no IR); for Frequency of mice showing a protective response: 8 Gy in presence of 10 μM compound for 24 hours
Method: FIG. 5. Identification of cannibalism modulators as immunogenic cell death inducers. MCA205 (A) or CT26 (E, I, M, Q) cells were treated with the indicated drugs. After 24 h of coculture with the indicated treatment, cell death was monitored by staining DiOC6(3) and PI, and the percentage of dying (DiOC6(3)^low PI^−, open bars) and dead (DiOC6(3)^low PI^+, closed bars) cells was determined by cytofluorometry. (B-D) MCA205 cells or (F-H, J-L, N-P, R-T) CT26 cells cocultured after x irradiation with the indicated compounds were inoculated subcutaneously into the right flank of […] or BALB/c mice, respectively. Seven days later, the mice were rechallenged with live cells injected into the opposite flank, and tumor growth was monitored (five mice per group).
FIG. 6. Tumor vaccination experiments. CT26 cells were treated for 24 hours with 10 μM VP331 (A, F, K), 10 μM Minaprine (B, G, L), 10 μM Lopa87 (C, H, M), 10 μM SG6163F (D, I, N), 10 μM Azaguanine-8 (8-aza) (E, J, O) alone or combined with 8 Gy ionizing radiation and inoculated (s.c.) into immunocompetent BALB/c mice, which were rechallenged at the opposite flank 7 days later with the same cancer cells. The percentage of tumor-free mice was evaluated three times a week for the following 38 days. Percentage of total tumor free mice (A-E), tumor free-mice at the first injection site (F to J, P) or at the second injection site (K to O, Q) are shown. (*P<0.05, **P<0.01, ***P<0.001, two-way ANOVA).
Considering that immunogenic cell death (ICD) inducers were identified (such as Digoxin, Digitoxin, Lanatoside C or Doxorubicin hydrochloride)^3, 4, 48-51) as IRCCE, the ability of these compounds to induce an antitumor immunity after radiotherapy was evaluated. First, a preclinical approaches was developed to study the immunological effects of IRCCE on two mouse models of carcinoma (colon CT26 carcinoma and fibrosarcoma MCA205). Initially, the ability of the combination of IRCCE+IR to trigger a specific anti-tumor immune response was appreciated using immunocompetent mice through anti-tumor vaccination assays. According to previously published studies^52, the injection of cancer cells succumbing to an immunogenic cell death (ICD) into immunocompetent mice must elicit a protective immune response that is specific for tumor antigens. Thus, 3×10^5 MCA205 cells were first treated with 10 μM of SG6163F for 24 hours. Then, treated cells were inoculated subcutaneously in 200 μl PBS into the lower flank of 8-week-old female C57BL/6 mice. One week later, 3×10^4 untreated control cells were inoculated into the contralateral flank of mice. Tumors were evaluated weekly using a common caliper. Animals bearing tumors that exceeded 20-25% body mass were euthanatized. […] Then, 3×10^6 CT26 cells were irradiated with 8 Gy in presence of 10 μM of SG6163F (FIGS. 5E and 5F), VP331 (FIGS. 5I and 5J), Minaprine dihydrochloride (FIGS. 5M and 5N) or LOPA87 (FIGS. 5Q and 5R) for 24 hours. Then, cells were inoculated as previously described subcutaneously in 200 μl PBS into the lower flank of 8-week-old female BALB/c mice. One week later, 5×10^5 untreated control cells were inoculated into the contralateral flank of mice and tumors were evaluated weekly using a common caliper. As previously mentioned, animals bearing tumors that exceeded 20-25% body mass were euthanatized. The percentage of dying cells in each condition was evaluated by determining with DiOC(6)3/IP staining (FIGS. 5E, 5I, 5M and 5Q). Finally, the ability of these compounds to repress the growth of cancer cells that have been injected 7 days after injection of irradiated and treated cancer cells was appreciated.
A second anti-tumor vaccination assay was done on CT26 mouse models of carcinoma as previously described. […]

[1] = second assay: CT26 cells, rechallenge 7 days later
[2] = first assay: CT26 cells, rechallenge one week later

| Compound | Enhancement of IR-mediated cellular cannibalism (IRCCE) (HCT116 cells) | also measured |
| --- | --- | --- |
| Nc1nc2[nH]nnc2c(=O)[nH]1 [8-Azaguanine] | efficient cellular cannibalism enhancer | Protective response after injection of cancer cells, compound alone (CT26 cells): induce an increase of protective response; Frequency of mice showing a protective response (CT26 cells; [1]): Significant increases in the frequency of mice showing a protective response |
| CCOC(=O)n1ccn(C)c1=S [Carbimazole] | no effect |  |
| C[C@H]1O[C@@H](O[C@H]2[C@@H](O)C[C@H](O[C@H]3[C@@H](O)C[C@H](O[C@H]4CC[C@@]5(C)[C@H](CC[C@@H]6[C@@H]5CC[C@]5(C)[C@@H](C7=CC(=O)OC7)CC[C@]65O)C4)O[C@@H]3C)O[C@@H]2C)C[C@H](O)[C@@H]1O [Digitoxin] | IRCCE; also recorded: efficient cellular cannibalism enhancer |  |
| C[C@H]1O[C@@H](O[C@H]2[C@@H](O)C[C@H](O[C@H]3[C@@H](O)C[C@H](O[C@H]4CC[C@@]5(C)[C@H](CC[C@@H]6[C@@H]5C[C@@H](O)[C@]5(C)[C@@H](C7=CC(=O)OC7)CC[C@]65O)C4)O[C@@H]3C)O[C@@H]2C)C[C@H](O)[C@@H]1O [Digoxin] | IRCCE; also recorded: efficient cellular cannibalism enhancer |  |
| COc1cccc2c1C(=O)c1c(O)c3c(c(O)c1C2=O)C[C@@](O)(C(=O)CO)C[C@@H]3O[C@H]1C[C@H](N)[C@H](O)[C@H](C)O1.Cl [Doxorubicine hydrochloride, Doxorubicin hydrochloride] |  | Enhancement of IR-mediated cellular cannibalism (IRCCE) (HCT116 cells; hydrochloride): efficient cellular cannibalism enhancer; Enhancement of IR-mediated cellular cannibalism (IRCCE) (HCT116 cells; listed as Doxorubicin hydrochloride, hydrochloride): IRCCE |
| COC(=O)Nc1nc2ccc(Sc3ccccc3)cc2[nH]1 [Fenbendazol] | no effect |  |
| CC(C(=O)O)c1ccc(-c2ccccc2)c(F)c1 (stereo not drawn) [Flurbiprofen] | efficient cellular cannibalism enhancer |  |
| CN(C)c1ccc(-c2cc(=O)[nH]c(-c3ccccc3)n2)cc1 [LOPA87] | efficient cellular cannibalism enhancer | Frequency of mice showing a protective response (CT26 cells; [2]): significant increase in the frequency of mice showing a protective response; Frequency of mice showing a protective response (CT26 cells; [1]): Significant increases in the frequency of mice showing a protective response |
| CC(=O)O[C@H]1C[C@H](O[C@H]2[C@@H](O)C[C@H](O[C@H]3[C@@H](O)C[C@H](O[C@H]4CC[C@@]5(C)[C@H](CC[C@@H]6[C@@H]5C[C@@H](O)[C@]5(C)[C@@H](C7=CC(=O)OC7)CC[C@]65O)C4)O[C@@H]3C)O[C@@H]2C)O[C@H](C)[C@H]1O[C@@H]1O[C@H](CO)[C@@H](O)[C@H](O)[C@H]1O [Lanatoside, Lanatoside C] | efficient cellular cannibalism enhancer | Enhancement of IR-mediated cellular cannibalism (IRCCE) (HCT116 cells; listed as Lanatoside C): IRCCE |
| CN1CCc2c(c3ccccc3n2Cc2ccccc2)C1 [Mebhydroline 1,5-napthalene disulfonate salt] | efficient cellular cannibalism enhancer |  |
| Cc1cc(-c2ccccc2)nnc1NCCN1CCOCC1.Cl.Cl [Minaprine dihydrochloride] | efficient cellular cannibalism enhancer | Protective response after injection of cancer cells, compound alone (CT26 cells; dihydrochloride): induce an increase of protective response; also recorded: intrinsic protective effects against tumor development; Frequency of mice showing a protective response (CT26 cells; [2]): significant increase in the frequency of mice showing a protective response; Frequency of mice showing a protective response (CT26 cells; [1]): Significant increases in the frequency of mice showing a protective response |
| COc1cc(O)ccc1/C=N/c1ccccc1C(=O)Nc1ccccc1 [RN-1-026] | efficient cellular cannibalism enhancer |  |
| CN1c2ccccc2C(=O)N(c2ccccc2)C1c1ccc(-c2csc(CO)c2)s1 (stereo not drawn) [VP43] | efficient cellular cannibalism enhancer |  |
| COc1ccc(C)cc1/C=N/[C@@H]1C[C@@H]2C[C@H]([C@H]1C)C2(C)C [VP331] | efficient cellular cannibalism enhancer | Frequency of mice showing a protective response (CT26 cells; [2]): significant increase in the frequency of mice showing a protective response; Frequency of mice showing a protective response (CT26 cells; [1]): Significant increases in the frequency of mice showing a protective response |
| O=C(N/N=C/c1ncc[nH]1)NC12CC3CC(CC(C3)C1)C2 [VP450] | efficient cellular cannibalism enhancer |  |
| Myricetin | efficient cellular cannibalism enhancer |  |
